Data on three compounds can be found in ChEMBL document CHEMBL3739332, “γ- and δ-Lactams from the Leaves of Clausena lansium” (2015).

Active and inactive are the calls of the source. No cut-off for these calls is given here.

Assay [1] can be described thus: Neuroprotective activity in Sprague-Dawley rat cortical neurons assessed as inhibition of amyloid beta (25 to 35 residues)-induced neurotoxicity compound pretreated at 50 uM for 2 hrs followed by addition of 10 uM amyloid beta (25 to 35 residues) for 40 hrs by MTT assay. It is filed as functional, Cortical neurone.
The subject of a further assay is Cortical neurone. Put plainly: Neuroprotective activity in Sprague-Dawley rat cortical neurons assessed as inhibition of amyloid beta (25 to 35 residues)-induced neurotoxicity compound pretreated at 10 to 50 uM for 2 hrs followed by addition of 10 uM amyloid beta (25 to 35 residues) for 40 hrs by MTT assay. It is filed as functional. In general terms: Tetrazolium dyes change colour on reduction, which living cells bring about.

`CO[C@@H](c1ccccc1)[C@@H]1[C@@H](c2ccccc2)[C@H](O)C(=O)N1C`: the “inhibition (INH)” value in assay [1] worked out at 22.24%. As for `CO[C@H](c1ccccc1)[C@@H]1[C@@H](c2ccccc2)[C@H](O)C(=O)N1C`, the inhibition result with Cortical neurone is “inactive”. The same measure, in the same setting: with `CO[C@H](c1ccccc1)[C@H]1[C@H](c2ccccc2)[C@H](O)C(=O)N1C` the entry was “inactive”.
